According to patent US8835458B2 (Hanmi Science Co., Ltd, priority 2010, dated 2014):
Counter-ions that a name gives are not always drawn.

Tests used:
[1] = Toxicity to normal cells (SRB); assay type: cell-based, human; details: human, Hs27 fibroblasts (normal cell line)
Experimental: (§1) MDA-MB-231 breast cancer cell lines (ATCC #HTB-26) and BxPC-3 pancreas cancer cell lines (ATCC #CRL 1687), which have been reported to express XIAP, were obtained from ATCC (American type culture collection; Rockville, Md.). MDA-MB-231 cell lines were incubated in L-15 medium supplemented with 10% FBS and 1% penicillin/streptomycin (Gibco BRL) at a T-75 cm^2 growth flask. In addition, BxPC-3 cell lines were incubated in RPMI medium supplemented with 10% FBS and 1% penicillin/streptomycin. For experiments of toxicity to normal cells, fibroblasts Hs27 (ATCC #CRL 1634) and Balb/c3t3 (ATCC #CCL 163) were used. The various cell lines were transferred into 96-well plates at a density of 3,000˜5,000 cells/100 μL, and cultured for 24 hours under conditions of 37° C., 5% CO2, 95% air, and 100% relative humidity (MDA-MB-231 cells were cultured under atmospheric conditions). The cells were treated with 10 μM˜0.1 nM of test compounds, and MDA-MB-231, BxPC-3, and normal cell lines were cultured for 120, 96, and 72 hours, respectively.
(§2) Cell viabilities of MDA-MB-231 cell lines were measured at an absorbance of 490 nm using CellTiter 96™ AQueous One Solution Cell proliferation Assay (MTS, Promega), and cell viabilities of BxPC-3 and normal cell lines were measured by fixing cells with 10% TCA (trichloroacetic acid), staining with SRB (sulforhodamine B), and measuring at 540 nm. From the values, GI50 values in which test compounds reduce the growth of cancer cells by 50% were calculated. The growth rates of cancer cells were calculated from following Equation 1 or 2. [(Ti−Tz)/(C−Tz)]×100 (for Ti>=Tz) [Equation 1] [(Ti−Tz)/Tz]×100 (for Ti<Tz) [Equation 2] In Equations 1 and 2, Tz refers to a density of untreated cells, which is an absorbance in 0% cell growth groups. C refers to a density of cells cultured by adding only medium, and Ti refers to a density of cells treated with test compounds.
(§3) GI50 value is the concentration of a test compound when the value of Equation 1 is 50, which indicates the concentration of test compound required to inhibit the cancer cells by 50%. On each measurement, test compounds were compared with a control.
(§4) The activity value of each compound (GI50 value) was shown in Table 5, and an IAP antagonist was used as a control.
(§5) In the activity measurement on MDA-MB-231 breast cancer cell lines, the values were represented as “***” for 100 nM or less, “**” for over 100 nM to below 1,000 nM, and “*” for 1,000 nM or more. In the measurement on normal cell lines, Balb/C and Hs27, the values were represented as “+++” for 10,000 nM or more, “++” for over 5,000 nM to below 10,000 nM, and “+” for 5,000 nM or less.

[2] = tested on: MDA-MB-231 breast cancer cell lines; assay: Evaluation of inhibition on cell growth (MTS); assay type: cell-based; details: Homo sapiens, MDA-MB-231, 120 hours
Experimental: as §1, §2, §3, §4, §5

SMILES | GI50 at 72 h [1] [µM] | GI50 [2] [nM]
CN[C@@H](C)C(=O)N[C@H](C(=O)N1CCC[C@H]1C(=O)Nc1cc2c(Nc3ccc4c(=O)cc(C)oc4c3)ncnc2cc1OC)C(C)(C)C [Example 93, (S)-1-((S)-3,3-dimethyl-2-((S)-2-(methylamino)propanamide)butanoyl)-N-(7-methoxy-4-((2-methyl-4-oxo-4H-chromen-7-yl)amino)quinazolin-6-yl)pyrrolidine-2-carboxamide hydrochloride] | > 10 | ≤ 100
CN[C@@H](C)C(=O)N[C@H](C(=O)N1CCC[C@H]1C(=O)Nc1cc2c(Nc3ccc(C4CCN(C)CC4)cc3)ncnc2cc1OC)C(C)(C)C [Example 106, (S)-1-((S)-3,3-dimethyl-2-((S)-2-(methylamino)propanamido)butanoyl)-N-(7-methoxy-4-((4-(1-methylpiperidin-4-yl)phenyl)amino)quinazolin-6-yl)pyrrolidine-2-carboxamide hydrochloride] | > 10 | ≤ 100
CN[C@@H](C)C(=O)N[C@H](C(=O)N1CCC[C@H]1C(=O)Nc1cc2c(Nc3ccc(N4CCN(CC5CC5)CC4)c(F)c3)ncnc2cc1OC)C(C)(C)C [Example 100, hydrochloride] | > 10 | ≤ 100
CN[C@@H](C)C(=O)N[C@H](C(=O)N1CCC[C@H]1C(=O)Nc1cc2c(Nc3cccnc3Cl)ncnc2cc1OC)C(C)(C)C [Example 78, (S)—N-(4-((2-chloropyridin-3-yl)amino)-7-methoxyquinazolin-6-yl)-1-((S)-3,3-dimethyl-2-((S)-2-(methylamino)propanamido)butanoyl)pyrrolidine-2-carboxamide hydrochloride] | > 10 | ≤ 100
CN[C@@H](C)C(=O)N[C@H](C(=O)N1CCC[C@H]1C(=O)Nc1cc2c(Nc3ccc(N4CCCCC4)c(F)c3)ncnc2cc1OC)C(C)(C)C [Example 85, (S)-1-((S)-3,3-dimethyl-2-((S)-2-(methylamino)propanamido)butanoyl)-N-(4-((3-fluoro-4-(piperidin-1-yl)phenyl)amino)-7-methoxyquinazolin-6-yl)pyrrolidine-2-carboxamide hydrochloride] | > 10 | ≤ 100
CN[C@@H](C)C(=O)N[C@H](C(=O)N1CCC[C@H]1C(=O)Nc1cc2c(Nc3ccc(N4CCC(N5CCN(C)CC5)CC4)cc3)ncnc2cc1OC)C(C)(C)C [Example 105, (S)-1-((S)-3,3-dimethyl-2-((S)-2-(methylamino)propanamido)butanoyl)-N-(7-methoxy-4-((4-(4-(4-methylpiperazin-1-yl)piperidin-1-yl)phenyl)amino)quinazolin-6-yl)pyrrolidine-2-carboxamide hydrochloride] | > 10 | ≤ 100
CN[C@@H](C)C(=O)N[C@H](C(=O)N1CCC[C@H]1C(=O)Nc1cc2c(Nc3ccc(N4CCCC4)c(Cl)c3)ncnc2cc1OC)C(C)(C)C [Example 113, (S)—N-(4-((3-chloro-4-(pyrrolidin-1-yl)phenyl)amino)-7-methoxyquinazolin-6-yl)-1-((S)-3,3-dimethyl-2-((S)-2-(methylamino)propanamido)butanoyl)pyrrolidine-2-carboxamide] | > 10 | ≤ 100
CN[C@@H](C)C(=O)N[C@H](C(=O)N1CCC[C@H]1C(=O)Nc1cc2c(Nc3ccc(Br)cc3Cl)ncnc2cc1OC)C(C)(C)C [Example 80, (S)—N-(4-((4-bromo-2-chlorophenyl)amino)-7-methoxyquinazolin-6-yl)-1-((S)-3,3-dimethyl-2-((S)-2-(methylamino)propanamido)butanoyl)pyrrolidine-2-carboxamide hydrochloride] | > 10 | ≤ 100
C#CCOc1ccc(Nc2ncnc3cc(OC)c(NC(=O)[C@@H]4CCCN4C(=O)[C@@H](NC(=O)[C@H](C)NC)C(C)(C)C)cc23)cn1 [Example 84, (S)-1-((S)-3,3-dimethyl-2-((S)-2-(methylamino)propanamido)butanoyl)-N-(7-methoxy-4-((6-(prop-2-yn-1-yloxy)pyridin-3-yl)amino)quinazolin-6-yl)pyrrolidine-2-carboxamide hydrochloride] | > 10 | 100 to 1000
CN[C@@H](C)C(=O)N[C@H](C(=O)N1CCC[C@H]1C(=O)Nc1cc2c(Nc3ccc(N4CCOCC4)c(Cl)c3)ncnc2cc1OC)C(C)(C)C [Example 95, (S)—N-(4-((3-chloro-4-morpholinophenyl)amino)-7-methoxyquinazolin-6-yl)-1-((S)-3,3-dimethyl-2-((S)-2-(methylamino)propanamido)butanoyl)pyrrolidine-2-carboxamide] | > 10 | ≤ 100
CN[C@@H](C)C(=O)N[C@H](C(=O)N1CCC[C@H]1C(=O)Nc1cc2c(Nc3ccc(-n4ccnc4)cc3)ncnc2cc1OC)C(C)(C)C [Example 88, (S)—N-(4-((4-(1H-imidazol-1-yl)phenyl)amino)-7-methoxyquinazolin-6-yl)-1-((S)-3,3-dimethyl-2-((S)-2-(methylamino)propanamido)butanoyl)pyrrolidine-2-carboxamide hydrochloride] | > 10 | ≤ 100
CN[C@@H](C)C(=O)N[C@H](C(=O)N1CCC[C@H]1C(=O)Nc1cc2c(NCCc3ccccc3)ncnc2cc1OC)C(C)(C)C [Example 83, hydrochloride] | > 10 | 100 to 1000
CN[C@@H](C)C(=O)N[C@H](C(=O)N1CCC[C@H]1C(=O)Nc1cc2c(Nc3ccc(N4CCOCC4)cc3)ncnc2cc1OC)C(C)(C)C [Example 90, (S)-1-((S)-3,3-dimethyl-((S)-2-(methylamino)propanamido)butanoyl)-N-(7-methoxy-4-((4-morpholinophenyl)amino)quinazolin-6-yl)pyrrolidine-2-carboxamide hydrochloride] | > 10 | ≤ 100
CN[C@@H](C)C(=O)N[C@H](C(=O)N1CCC[C@H]1C(=O)Nc1cc2c(Nc3ccc(S(=O)(=O)N4CCN(C)CC4)cc3)ncnc2cc1OC)C(C)(C)C [Example 108, (S)-1-((S)-3,3-dimethyl-2-((S)-2-(methylamino)propanamido)butanoyl)-N-(7-methoxy-4-((4-((4-methylpiperazin-1-yl)sulfonyl)phenyl)amino)quinazolin-6-yl)pyrrolidine-2-carboxamide hydrochloride] | > 10 | ≤ 100
CN[C@@H](C)C(=O)N[C@H](C(=O)N1CCC[C@H]1C(=O)Nc1cc2c(Nc3ccc(Cl)nc3)ncnc2cc1OC)C(C)(C)C [Example 79, (S)—N-(4-((6-chloropyridin-3-yl)amino)-7-methoxyquinazolin-6-yl)-1-((S)-3,3-dimethyl-2-((S)-2-(methylamino)propanamido)butanoyl)pyrrolidine-2-carboxamide hydrochloride] | > 10 | ≤ 100
CN[C@@H](C)C(=O)N[C@H](C(=O)N1CCC[C@H]1C(=O)Nc1cc2c(Nc3ccc4c(c3)CC(=O)N4)ncnc2cc1OC)C(C)(C)C [Example 94, (S)-1-((S)-3,3-dimethyl-2-((S)-2-(methylamino)propanamide)butanoyl)-N-(7-methoxy-4-((2-oxoindolin-5-yl)amino)quinazolin-6-yl)pyrrolidine-2-carboxamide hydrochloride] | > 10 | 100 to 1000
CN[C@@H](C)C(=O)N[C@H](C(=O)N1CCC[C@H]1C(=O)Nc1cc2c(Nc3cc(Cl)c(OCc4ccccn4)c(Cl)c3)ncnc2cc1OC)C(C)(C)C [Example 101, (S)—N-(4-((3,5-dichloro-4-(pyridin-2-ylmethoxy)phenyl)amino)-7-methoxyquinazolin-6-yl)-1-((S)-3,3-dimethyl-2-((S)-2-(methylamino)propanamido)butanoyl)pyrrolidine-2-carboxamide hydrochloride] | > 10 | ≤ 100
CN[C@@H](C)C(=O)N[C@H](C(=O)N1CCC[C@H]1C(=O)Nc1cc2c(Nc3cccc(Cl)c3Cl)ncnc2cc1OC)C(C)(C)C [Example 81, (S)—N-(4-((2,3-dichlorophenyl)amino)-7-methoxyquinazolin-6-yl)-1-((S)-3,3-dimethyl-2-((S)-2-(methylamino)propanamido)butanoyl)pyrrolidine-2-carboxamide hydrochloride] | > 10 | ≤ 100
